US20250276972A1, “COMPOUNDS AS CASEIN KINASE INHIBITORS” (GRITSCIENCE BIOPHARMACEUTICALS CO.,LTD., priority 2020, published 2025)

system: not listed separately; test: Intrinsic clearance in liver microsomes (human); format: in vitro ADME; conditions: Human liver microsomes 0.5 mg/mL, 2 μM compound, 37° C.; read-out: in vitro CLint (μL/min/mg protein)
Protocol: (§1) • 1. The master solution was prepared according to Table 5.
(§2) • 2. Three separated experiments were performed as follows. a) With NADPH: 10 μL of 20 mg/mL liver microsomes and 40 μL of 10 mM NADPH were added to the incubations. The final concentrations of microsomes and NADPH were 0.5 mg/mL and 1 mM, respectively. b) Without NADPH: 10 μL of 20 mg/mL liver microsomes and 40 μL of ultra-pure H2O were added to the incubations. The final concentration of microsomes was 0.5 mg/mL. c) Heat-inactivated microsomes without NADPH: 10 μL of 20 mg/mL heat-inactivated liver microsomes and 40 μL of ultra-pure H2O were added to the incubations. The final concentration of microsomes was 0.5 mg/mL. • 3. The reaction was started with the addition of 4 μL of 200 μM test compound solution or control compound solution at the final concentration of 2 μM and carried out at 37° C. • 4. Aliquots of 50 μL were taken from the reaction solution at 0, 15, 30, 45 and 60 min. […] Samples were centrifuged at 3, 220 g for 40 minutes. […] Data Analysis
(§3) Peak areas were determined from extracted ion chromatograms. The slope value, k, was determined by linear regression of the natural logarithm of the remaining percentage of the parent drug vs. incubation time curve.
(§4) The in vitro half-life (in vitro t1/2) was determined from the slope value:
(§5) Conversion of the in vitro t1/2 (min) into the in vitro intrinsic clearance (in vitro CLint, in μL/min/mg protein) was done using the following equation (mean of duplicate determinations): […]

| microsomal CLint at 2 μM [µL/min/mg] | SMILES |
| --- | --- |
| 12.4 | Cc1cc(-c2c(-c3ccc(F)cc3)nn3c2CN(Cc2ncccn2)CC3)ccn1 [Compound I-9, 2-(4-fluorophenyl)-3-(2-methylpyridin-4-y)-5-(pyrimidin-2-ylmethyl)-4,5,6,7-tetrahydropyrazolo[1,5-a]pyrazine] |

same assay, conditions: Human liver microsomes 0.5 mg/mL, 2 μM compound, 37° C.; read-out: in vitro t1/2

| half-life at 2 μM [min] | SMILES |
| --- | --- |
| 112 | Cc1cc(-c2c(-c3ccc(F)cc3)nn3c2CN(Cc2ncccn2)CC3)ccn1 [Compound I-9, 2-(4-fluorophenyl)-3-(2-methylpyridin-4-y)-5-(pyrimidin-2-ylmethyl)-4,5,6,7-tetrahydropyrazolo[1,5-a]pyrazine] |

system: not listed separately; test: Intrinsic clearance in liver microsomes (mouse); format: in vitro ADME; conditions: Mouse liver microsomes 0.5 mg/mL, 2 μM compound, 37° C.; read-out: in vitro CLint (μL/min/mg protein)
Protocol: as §1, §2, §3, §4, §5

| microsomal CLint at 2 μM [µL/min/mg] | SMILES |
| --- | --- |
| 43.4 | Cc1cc(-c2c(-c3ccc(F)cc3)nn3c2CN(Cc2ncccn2)CC3)ccn1 [Compound I-9, 2-(4-fluorophenyl)-3-(2-methylpyridin-4-y)-5-(pyrimidin-2-ylmethyl)-4,5,6,7-tetrahydropyrazolo[1,5-a]pyrazine] |

same assay, conditions: Mouse liver microsomes 0.5 mg/mL, 2 μM compound, 37° C.; read-out: in vitro t1/2

| half-life at 2 μM [min] | SMILES |
| --- | --- |
| 31.9 | Cc1cc(-c2c(-c3ccc(F)cc3)nn3c2CN(Cc2ncccn2)CC3)ccn1 [Compound I-9, 2-(4-fluorophenyl)-3-(2-methylpyridin-4-y)-5-(pyrimidin-2-ylmethyl)-4,5,6,7-tetrahydropyrazolo[1,5-a]pyrazine] |

biological target: T1, CK1δ (Homo sapiens, UniProt P48730); test: CK1δ inhibition (EC50); Bmal1-dLuc or Per2-dLuc U2OS luminescence rhythm period assay; format: cell-based; conditions: Table 3
T1 construct: endogenous in cells; host or cells: Bmal1-dLuc or Per2-dLuc U2OS cells
Protocol: Bmall-dLuc or Per2-dLuc U2OS cells were suspended in the culture medium (DMEM supplemented with 10% fetal bovine serum, 0.29 mg/mL L-glutamine, 100 units/mL penicillin, and […] streptomycin) and plated onto 96-well white solid-bottom plates at 200 μL (10,000 cells) per well. After 2 days, 100 μL of the explant medium (DMEM supplemented with 2% B27, 10 mM HEPES, 0.38 mg/mL sodium bicarbonate, 0.29 mg/mL L-glutamine, 100 units/mL penicillin, […], 0.1 mg/mL gentamicin, and 1 mM luciferin, pH 7.2) was dispensed to each well, followed by the application of 1 μL of a compound of the present application (dissolved in DMSO; final concentration was 0.7% in DMSO). The plate was covered with an optically clear film and set to microplate reader (Infinite M200, Tecan).

T1 sequence (P48730 whole entry): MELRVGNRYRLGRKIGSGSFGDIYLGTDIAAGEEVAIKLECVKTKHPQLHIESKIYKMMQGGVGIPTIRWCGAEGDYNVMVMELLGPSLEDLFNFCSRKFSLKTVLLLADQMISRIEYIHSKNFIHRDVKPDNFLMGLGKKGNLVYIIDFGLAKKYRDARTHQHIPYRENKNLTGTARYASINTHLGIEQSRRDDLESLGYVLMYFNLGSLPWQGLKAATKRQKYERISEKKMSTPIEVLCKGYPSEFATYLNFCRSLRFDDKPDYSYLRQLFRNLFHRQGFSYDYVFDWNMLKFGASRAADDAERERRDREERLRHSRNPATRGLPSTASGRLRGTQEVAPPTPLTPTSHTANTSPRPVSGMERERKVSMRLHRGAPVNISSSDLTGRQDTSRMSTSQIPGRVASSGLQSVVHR

| EC50 [nM] | SMILES |
| --- | --- |
| 600 | CCCC(=O)Nc1cc(-c2c(-c3ccc(F)cc3)nn3c2CN(C(=O)CCC)CC3)ccn1 [Compound I-56, N-(4-(5-butyryl-2-(4-fluorophenyl)-4,5,6,7-tetrahydropyrazolo[1,5-a]pyrazin-3-yl)pyridin-2-yl)butyramide] |
| 500 | CC(=O)Nc1cc(-c2c(-c3ccc(F)cc3)nn3c2CN(C(C)=S)CC3)ccn1 [Compound I-57] |
| 1000 | CC(=O)Nc1cc(-c2c(-c3ccc(F)cc3)nn3c2CN(C)CC3)ccn1 [Compound I-71, N-(4-(2-(4-fluorophenyl)-5-methyl-4,5,6,7-tetrahydropyrazolo[1,5-a]pyrazin-3-yl)pyridin-2-yl)acetamide] |
| 10 | CC(=O)N1CCn2nc(-c3ccc(F)cc3)c(-c3ccnc(NC(=O)Cc4ccccc4)c3)c2C1 [Compound I-72, N-(4-(5-acetyl-2-(4-fluorophenyl)-4,5,6,7-tetrahydropyrazolo[1,5-a]pyrazin-3-yl)pyridin-2-yl)-2-phenylacetamide] |
| 110 | CC(=O)N1CCn2nc(-c3ccc(F)cc3)c(-c3ccnc(NC(=O)c4ccccc4)c3)c2C1 [Compound I-73, N-(4-(5-acetyl-2-(4-fluorophenyl)-4,5,6,7-tetrahydropyrazolo[1,5-a]pyrazin-3-yl)pyridin-2-yl)benzamide] |
| 1600 | CC(=O)N1CCn2nc(-c3ccc(F)cc3)c(-c3ccnc(Nc4ccccc4)c3)c2C1 [Compound I-74, 1-(2-(4-fluorophenyl)-3-(2-(phenylamino)pyridin-4-yl)-6,7-dihydropyrazolo[1,5-a]pyrazin-5(4H)-yl)ethan-1-one] |
| 200 | CC(=O)N1CCn2nc(-c3ccc(F)cc3)c(-c3ccnc(NC(=O)CC4CC4)c3)c2C1 [Compound I-75, N-(4-(5-acetyl-2-(4-fluorophenyl)-4,5,6,7-tetrahydropyrazolo[1,5-a]pyrazin-3-yl)pyridin-2-yl)-2-cyclopropylacetamide] |
| 1000 | CC(=O)N1CCn2nc(-c3ccc(F)cc3)c(-c3ccnc(NC(=O)c4ccn(C)n4)c3)c2C1 [Compound I-76, N-(4-(5-acetyl-2-(4-fluorophenyl)-4,5,6,7-tetrahydropyrazolo[1,5-a]pyrazin-3-yl)pyridin-2-yl)-1-methyl-1H-pyrazole-3-carboxamide] |
| 200 | O=C(Cc1ccc(F)cc1)Nc1cc(-c2c(-c3ccc(F)cc3)nn3c2CN(Cc2ccccc2)CC3)ccn1 [Compound I-94, N-(4-(5-benzyl-2-(4-fluorophenyl)-4,5,6,7-tetrahydropyrazolo[1,5-a]pyrazin-3-yl)pyridin-2-yl)-2-(4-fluorophenyl)acetamide] |
| 1700 | CC(=O)Nc1cc(-c2c(-c3ccc(F)cc3)nn3c2CN(Cc2ccccc2)CC3)ccn1 [Compound I-95, N-(4-(5-benzyl-2-(4-fluorophenyl)-4,5,6,7-tetrahydropyrazolo[1,5-a]pyrazin-3-yl)pyridin-2-yl)acetamide] |
| 900 | CCC(=O)Nc1cc(-c2c(-c3ccc(F)cc3)nn3c2CN(C(=O)CC)CC3)ccn1 [Compound I-97, N-(4-(2-(4-fluorophenyl)-5-propionyl-4,5,6,7-tetrahydropyrazolo[1,5-a]pyrazin-3-yl)pyridin-2-yl)propionamide] |
| 2100 | CC(C)C(=O)Nc1cc(-c2c(-c3ccc(F)cc3)nn3c2CN(C(=O)C(C)C)CC3)ccn1 [Compound I-98, N-(4-(2-(4-fluorophenyl)-5-isobutyryl-4,5,6,7-tetrahydropyrazolo[1,5-a]pyrazin-3-yl)pyridin-2-yl)isobutyramide] |
| 700 | CC(=O)Nc1cc(-c2c(-c3ccc(F)cc3)nn3c2CNCC3)ccn1 [Compound I-99, N-(4-(2-(4-fluorophenyl)-4,5,6,7-tetrahydropyrazolo[1,5-a]pyrazin-3-yl)pyridin-2-yl)acetamide] |
| 2200 | CC(=O)N1CCn2nc(-c3ccc(F)cc3)c(-c3ccnc(Nc4ccncc4)c3)c2C1 [Compound I-101, 1-(2-(4-fluorophenyl)-3-(2-(pyridin-4-ylamino)pyridin-4-yl)-6,7-dihydropyrazolo[1,5-a]pyrazin-5(4H)-yl)ethan-1-one] |

The remaining lines, values behind:

| SMILES | EC50 [nM] |
| --- | --- |
| Cc1cc(-c2c(-c3ccc(F)cc3)nn3c2CN(C2COC2)CC3)ccn1 [Compound I-12, 2-(4-fluorophenyl)-3-(2-methylpyridin-4-yl)-5-(oxetan-3-yl)-4,5,6,7-tetrahydropyrazolo[1,5-a]pyrazine] | 20000 |
| CS(=O)(=O)N1CCn2nc(-c3ccc(F)cc3)c(-c3ccnc(N)c3)c2C1 [Compound I-25, 4-(2-(4-fluorophenyl)-5-(methylsulfonyl)-4,5,6,7-tetrahydropyrazolo[1,5-a]pyrazin-3-yl)pyridin-2-amine] | 670 |
| CCN1CCn2nc(-c3ccc(F)cc3)c(-c3ccnc(NC(C)=O)c3)c2C1 [Compound I-26, N-(4-(5-ethyl-2-(4-fluorophenyl)-4,5,6,7-tetrahydropyrazolo[1,5-a]pyrazin-3-yl)pyridin-2-yl)acetamide] | 400 |
| CC(=O)Nc1cc(-c2c(-c3ccc(F)cc3)nn3c2CN(C(C)C)CC3)ccn1 [Compound I-27, N-(4-(2-(4-fluorophenyl)-5-isopropyl-4,5,6,7-tetrahydropyrazolo[1,5-a]pyrazin-3-yl)pyridin-2-yl)acetamide] | 500 |
| CC(=O)Nc1cc(-c2c(-c3ccc(F)cc3)nn3c2CN(C2CC2)CC3)ccn1 [Compound I-28] | 600 |
| CC(=O)Nc1cc(-c2c(-c3ccc(F)cc3)nn3c2CN(CC(F)(F)F)CC3)ccn1 [Compound I-29, N-(4-(2-(4-fluorophenyl)-5-(2,2,2-trifluoroethyl)-4,5,6,7-tetrahydropyrazolo[1,5-a]pyrazin-3-yl)pyridin-2-yl)acetamide] | 600 |
| CC(=O)Nc1cc(-c2c(-c3ccc(F)cc3)nn3c2CN(C(=O)C(F)(F)F)CC3)ccn1 [Compound I-30, N-(4-(2-(4-fluorophenyl)-5-(2,2,2-trifluoroacetyl)-4,5,6,7-tetrahydropyrazolo[1,5-a]pyrazin-3-yl)pyridin-2-yl)acetamide] | 500 |
| CC(=O)Nc1cc(-c2c(-c3ccc(F)cc3)nn3c2CN(CCO)CC3)ccn1 [Compound I-31, N-(4-(2-(4-fluorophenyl)-5-(2-hydroxyethyl)-4,5,6,7-tetrahydropyrazolo[1,5-a]pyrazin-3-yl)pyridin-2-yl)acetamide] | 300 |
| CC(C)(C)C(=O)Nc1cc(-c2c(-c3ccc(F)cc3)nn3c2CN(S(C)(=O)=O)CC3)ccn1 [Compound I-32, N-(4-(2-(4-fluorophenyl)-5-(methylsulfonyl)-4,5,6,7-tetrahydropyrazolo[1,5-a]pyrazin-3-yl)pyridin-2-yl)pivalamide] | 800 |
| CNCCN1CCn2nc(-c3ccc(F)cc3)c(-c3ccnc(NC(C)=O)c3)c2C1 [Compound I-41, N-(4-(2-(4-fluorophenyl)-5-(2-(methylamino)ethyl)-4,5,6,7-tetrahydropyrazolo[1,5-a]pyrazin-3-yl)pyridin-2-yl)acetamide] | 600 |
| CC(=O)Nc1cc(-c2c(-c3ccc(F)cc3)nn3c2CN(C2COC2)CC3)ccn1 [Compound I-46, N-(4-(2-(4-fluorophenyl)-5-(oxctan-3-yl)-4,5,6,7-tetrahydropyrazolo[1,5-a]pyrazin-3-yl)pyridin-2-yl)acetamide] | 1200 |
| CC(=O)Nc1cc(-c2c(-c3ccc(F)cc3)nn3c2CN(C2CC(F)C2)CC3)ccn1 (stereo not drawn) [Compound I-49, N-(4-(5-(3-fluorocyclobutyl)-2-(4-fluorophenyl)-4,5,6,7-tetrahydropyrazolo[1,5-a]pyrazin-3-yl)pyridin-2-yl)acetamide] | 1300 |
